Data from patent publication US20130122541A1, “MICROORGANISM PRODUCTION OF HIGH-VALUE CHEMICAL PRODUCTS, AND RELATED COMPOSITIONS, METHODS AND SYSTEMS” (The Regents of the University of Colorado, priority 2010, published 2013).

Assays:
[1] = system: MACH1-T1R; test: MIC, microaerobic 96 well-plate, MOPS minimal media, IroK expression studies (Example 45); type: cell-based, E. coli; conditions: for MIC of other organic acids of similar molecular makeup on IroK expression: IroK expressed from pKK223-3
Method: The two oligonucleotides were added in a 1:1 ratio and annealed according to standard methodology in a thermal cycler. Ligation of the annealed primer product with the pKK223-3 expression vector (SEQ ID NO:008, Pharmacia, Piscataway, N.J.) was performed with T4 Ligase (Invitrogen, Carlsbad, Calif.) and incubated at 25° C. overnight. The ligation product was then electroporated into competent MACH1™-T1^R, plated on LB+ampicillan, and incubated at 37° C. for 24 hours. Plasmids were isolated and confirmed by purification and subsequent restriction digest and sequencing (Macrogen, Rockville, Md.). MICs were then determined corresponding to 1 mM IPTG induction.
The minimum inhibitory concentration (MIC) was determined microaerobically in a 96 well-plate format. Overnight cultures of strains were grown in 5 mL LB (with antibiotic where appropriate). A 1% (v/v) inoculum was introduced into a 15 ml culture of MOPS minimal media. After the cells reached mid-exponential phase, the culture was diluted to an OD600 of 0.200. The cells were further diluted 1:20 and a […] aliquot was used to inoculate each well of a 96 well plate (˜10^4 cells per well).

[2] = system: E. coli K12; conditions: aerobic, 24 h; putrescine, cadaverine, spermidine 0.1 g/L, sodium bicarbonate 20 mM; value is the 3-HP concentration
[3] = system: BX3_0206; test: 3-HP production by BX3_0206 in SM3 medium without and with 10 μg/ml cerulenin; type: cell-based, E. coli
Method: All data are the average of triplicate cultures. […] Under these conditions, the specific productivity after 24 hours is […] 3HP per gDCW.

[4] = system: BX3_0194; test: 3-HP production by BX3_0194 in SM3 medium without and with 10 μg/ml cerulenin; type: cell-based, E. coli
Method: All data are the average of triplicate cultures.
Under these conditions, the specific productivity after 24 hours is 1.3 g 3HP per gDCW.

[5] = system: BX3_0195; test: 3-HP production by BX3_0195 in SM3 medium without and with 10 μg/ml cerulenin; type: cell-based, E. coli
Method: Cultures were started from freezer stocks by standard practice (Sambrook and Russell, 2001) into 50 mL of LB media plus 100 μg/mL ampicillin and grown to stationary phase overnight at 37° C. with rotation at 225 rpm. Five ml of this culture were transferred to 100 ml of SM3 media plus 40 g/L glucose, 100 μg/ml ampicillin, and 1 mM IPTG in triplicate 250-ml baffled flasks and incubated at 37° C., 225 rpm. […] Dry cell weight (DCW) is calculated as 0.33 times the measured OD600 value, based on baseline DCW to OD600 determinations. All data are the average of triplicate cultures.

[6] = 24 hr, SM3 medium, presence of 10 μg/ml cerulenin

## CC(O)C(=O)O (centres unmarked) [lactic, lactic acid]
[1]
  MIC of other organic acids of similar molecular makeup on IroK expression: unchanged

## CC(=O)O [acetic, acetic acid]
[1]
  MIC of other organic acids of similar molecular makeup on IroK expression: unchanged

## MKPALRDFIAIVQERLASVTA [IroK]
[1]; expressed from pKK223-3, 1 mM IPTG, microaerobic, MOPS minimal media, 24 h
  fold increase in MIC of 3-HP on increased expression of IroK: > 2 fold

## O=C([O-])O.[Na+] [sodium bicarbonate]
[2]
  Minimum inhibitory concentration (MIC) of 3-HP for E. coli K12 in M9 minimal media supplemented with the substance: 30 mg/mL

## C/C=C/C/C=C/CCC(=O)[C@H]1O[C@H]1C(N)=O [cerulenin]
[3]; [6]
  3HP: 0.43 g/L
  OD600: 6.4
[3]; BX3_0206, SM3 medium, 10 μg/ml cerulenin
  specific productivity after 24 hours: 0.20 g 3HP per gDCW
[4]
  specific productivity after 24 hours: 1.3 g 3HP per gDCW
[4]; 4 hr
  3HP: 0.003 g/L
  OD600: 1.3
[4]; 6 hr
  3HP: 0.14 g/L
  OD600: 2.6
[4]; 8 hr
  3HP: 0.43 g/L
  OD600: 3.1
[4]; 24 hr
  3HP: 1.43 g/L
  OD600: 3.3
[5]
  specific productivity after 24 hours: 0.54 g 3HP per gDCW
[5]; 4 hr
  3HP: 0.003 g/L
  OD600: 0.97
[5]; 6 hr
  3HP: 0.07 g/L
  OD600: 1.57
[5]; 8 hr
  3HP: 0.31 g/L
  OD600: 2.36
[5]; 24 hr
  3HP: 1.17 g/L
  OD600: 6.59

## C=CC(=O)O [acrylic, acrylic acid]
[1]
  MIC of other organic acids of similar molecular makeup on IroK expression: unchanged
